Data: PubChem BioAssay (NCI)
Values joined by “and” are separate entries in the source; they are usually repeats but may differ in a detail not shown here. Equal entries are not always repeated.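 Exposure lasted 48 hours, with cells grown in 96-well plates and compounds tested at five concentrations. GI50 marks 50% less growth. TGI: total growth inhibition.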

How the values were obtained:
Assay in all cases: NCI anticancer screen, dose series, 48 h
OVCAR-3 ovarian = test system: OVCAR-3 ovarian
M14 melanoma = test system: M14 melanoma
OVCAR-5 ovarian = test system: OVCAR-5 ovarian
SR leukemia = test system: SR leukemia
EKVX NSCLC = test system: EKVX NSCLC
PC-3 prostate = test system: PC-3 prostate
RXF 393 renal = test system: RXF 393 renal
TK-10 renal = test system: TK-10 renal
SK-MEL-2 melanoma = test system: SK-MEL-2 melanoma
HL-60(TB) leukemia = test system: HL-60(TB) leukemia

Row | SMILES | GI50 (OVCAR-3 ovarian) | TGI (OVCAR-3 ovarian) | GI50 (M14 melanoma) | TGI (M14 melanoma) | GI50 (OVCAR-5 ovarian) | TGI (OVCAR-5 ovarian) | GI50 (SR leukemia) | TGI (SR leukemia) | GI50 (EKVX NSCLC) | TGI (EKVX NSCLC) | GI50 (PC-3 prostate) | TGI (PC-3 prostate) | GI50 (RXF 393 renal) | TGI (RXF 393 renal) | GI50 (TK-10 renal) | TGI (TK-10 renal) | GI50 (SK-MEL-2 melanoma) | TGI (SK-MEL-2 melanoma) | GI50 (HL-60(TB) leukemia) | TGI (HL-60(TB) leukemia)
1 | CC[C@H](CO)Nc1nc(NCc2ccccc2)n2ncc(C(C)C)c2n1 | 1.15 µM | 4.6 µM | 2 µM | 7.93 µM | 1.85 µM | 15 µM | 0.249 µM | 1.59 µM | 2.41 µM | 9.13 µM | 0.927 µM | 12.3 µM | 0.25 µM | 0.792 µM | 2 µM | 10.9 µM | 1.47 µM | 6 µM | 0.409 µM | 2.68 µM
2 | Cc1ccc(S(=O)(=O)Nc2cccc3[nH]c(C(F)(F)F)nc23)cc1 | 0.426 µM | > 100 µM | 0.355 µM | 38.6 µM | 1.85 µM | > 74.1 µM | 0.383 µM | 22 µM |  |  | 0.56 µM | > 68.8 µM | 1.17 µM | 27.1 µM | 2.98 µM | 61.8 µM | 0.321 µM | 3.54 µM | 0.39 µM | 17.2 µM
3 | COc1c2c(nc3ccccc13)-c1cc3c(c(=O)n1C2)COC(=O)C3(O)CC(=O)N1CCOCC1 (stereo not given) |  | 55 µM |  | 41.4 µM |  | 63.1 µM |  | 17.5 µM |  | > 93.6 µM |  | > 100 µM |  | 26.9 µM |  | > 100 µM |  | 64.6 µM |  | 17.6 µM
4 | CS[C@]12C(=O)C[C@@]3(C)[C@@H](CC[C@]3(O)C(=O)CO)[C@@H]1CCC1=CC(=O)CC[C@@]12C |  | > 100 µM |  | > 100 µM |  | > 100 µM |  | > 100 µM |  | > 100 µM |  | > 100 µM |  | > 100 µM |  | > 100 µM |  | > 100 µM |  | > 100 µM
5 | CC[N+]1(C)CCC(O)(c2ccc(Cl)c(Cl)c2)C(C(=O)c2ccc(Cl)c(Cl)c2)C1 (stereo not given) |  | > 10 µM |  | > 10 µM |  | > 10 µM |  | > 10 µM |  | > 10 µM |  | > 10 µM |  | > 10 µM |  | > 10 µM |  | > 10 µM |  | > 10 µM
6 | COc1ccc(C(=O)c2cc3c(N)c(C(=O)Nc4cccc5ccccc45)sc3nc2C)cc1 | 0.156 µM | > 50 µM | 0.166 µM | > 50 µM | 0.285 µM | > 50 µM | 0.161 µM | > 50 µM | 0.294 µM | > 50 µM | 0.212 µM | > 50 µM | 0.088 µM | > 50 µM | > 50 µM | > 50 µM | > 50 µM | > 50 µM | 0.15 µM | 0.503 µM
7 | Cc1c2c(nn1C)CSCc1cc(n(C)n1)CSc1cc(c3ccccc3c1)OCCCc1c(C(=O)O)n(C)c3c-2c(Cl)ccc13 | 2.7 µM | 6.82 µM | 2.68 µM | 11.1 µM | 5.11 µM | 17.6 µM | 0.47 µM | 7.25 µM | 3.86 µM | 15.7 µM | 3.42 µM | 13.2 µM | 1.29 µM | 3.63 µM | 4.75 µM | 18.3 µM | 0.165 µM | 0.429 µM | 0.0427 µM | 0.294 µM
8 | C=C1C(=O)OC2C1C(OC(=O)/C(C)=C/C)CC(O)(CCl)C1C(O)C3OC3(C)C21O (stereo not given) |  | > 50 µM |  | > 50 µM |  | > 50 µM |  | > 50 µM |  | > 50 µM |  | > 50 µM |  | 26 µM |  | > 50 µM |  | > 50 µM |  | 23.2 µM
9 | CCOc1cc2ncc(C#N)c(Nc3ccc(OCc4ccccn4)c(Cl)c3)c2cc1NC(=O)/C=C/CN(C)C | 1.05 µM and 0.49 µM | 20.2 µM and > 6.8 µM | 0.392 µM and 0.38 µM | 1.95 µM and 1.58 µM | 0.416 µM and 0.351 µM | 7.82 µM and > 10 µM | 0.413 µM | > 3.38 µM | 0.0183 µM and 0.0189 µM | 25.6 µM and > 6.84 µM | 1.93 µM and 1.31 µM | 8.36 µM and > 9.32 µM | 0.421 µM | 2.28 µM | < 0.0117 µM and 0.0127 µM |  | 0.291 µM and 0.377 µM | 2.51 µM and > 4.63 µM | 0.855 µM and 0.822 µM | 12.9 µM and 2.73 µM
10 | Cn1cc(C2=C(c3cccc(OCC(O)CO)c3)C(=O)NC2=O)c2ccccc21 (stereo not given) | > 25 µM | > 25 µM | > 25 µM | > 25 µM | > 25 µM | > 25 µM | > 25 µM | > 25 µM |  |  | > 25 µM | > 25 µM | > 25 µM | > 25 µM | > 25 µM | > 25 µM | > 25 µM | > 25 µM | > 25 µM | > 25 µM
11 | COc1cc(/C=C2\Sc3scc(-c4cccc([N+](=O)[O-])c4)[n+]3C2=O)cc(OC)c1OC |  | 44.8 µM |  | 23.9 µM |  | 55.6 µM |  | 5.11 µM |  | 26.5 µM |  | 86.3 µM |  | 26.9 µM |  | 22.6 µM |  | 39.8 µM |  | 82.1 µM
12 | COc1cc(C(=O)NC2CCN(C)CC2)c(F)cc1Nc1ncc2c(n1)N(C1CCCC1)CC(F)(F)C(=O)N2C | < 0.0155 µM | 5.87 µM | 0.0235 µM | 5.89 µM | < 0.0191 µM | 14.3 µM | < 0.01 µM |  |  |  | < 0.0201 µM | 18.3 µM | < 0.0169 µM | 15.2 µM |  | 12.6 µM | < 0.01 µM | 3.4 µM | < 0.01 µM | < 0.0197 µM
13 | COc1ccc(/C=C2\CCCC3=C2NC(N)=NC3c2ccc(OC)c(OC)c2)cc1OC (stereo not given) | 5.41 µM | > 100 µM | 6.25 µM | > 73.2 µM | > 54.5 µM | > 100 µM | 0.915 µM | 22.6 µM | 39.7 µM | > 100 µM | 20.4 µM | > 100 µM | 3.96 µM | 24.2 µM | 4.68 µM | 27.9 µM | 9.59 µM | 81.9 µM | 4.52 µM | > 100 µM
14 | COc1cc([C@H]2OC[C@H]3[C@@H]2CO[C@@H]3c2cc(OC)c3c(c2)OCO3)cc(OC)c1OC |  | > 100 µM |  | > 100 µM |  | > 100 µM |  | > 100 µM |  | > 100 µM |  | > 100 µM |  |  |  | > 100 µM |  | > 100 µM |  | > 100 µM
15 | CC1(C)[C@@H](OC(N)=O)[C@H]2O[C@H]2[C@]2(CO)[C@H]3CC[C@]4(C)[C@@H](c5ccc(=O)oc5)[C@@H](Cl)C[C@]4(O)C3=CC[C@@H]12 | 0.00618 µM | 0.014 µM | 0.0161 µM | 0.0558 µM | 0.00821 µM | 0.0342 µM | 0.00681 µM | 0.0195 µM | 0.00534 µM | < 0.0138 µM | 0.00803 µM | 0.0275 µM | 0.00716 µM | 0.0829 µM | 0.00555 µM | 0.015 µM | 0.00818 µM | 0.033 µM | 0.00609 µM | 0.014 µM
